“And” between values parts separate entries of the source, which are not always exact repeats. Equal entries are not always repeated. Inconclusive results and toxic doses are left out. How the source made its calls: active means survival T/C of 150% or more; inactive means T/C below 125% in these data.
System: P388 leukemia ip, CD2F1 mice, survival T/C
Experiment: NCI In Vivo Anticancer Drug Screen. Data for tumor model P388 Leukemia (intraperitoneal) in CD2F1 (CDF1) mice
Conditions: endpoint: median survival time, higher = longer survival
Summary of the method: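 Mice carrying the transplanted tumor received test compound or vehicle. Survival was recorded in each group, and the value is the treated-group measurement divided by that of the vehicle-treated control group.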

[1] = dose: 25.0 mg/kg/injection, schedule: Q01DX005 (ip), vehicle: Klucel (hydroxypropylcellulose) (HPC)
[2] = dose: 50.0 mg/kg/injection, schedule: Q01DX005 (ip), vehicle: Klucel (hydroxypropylcellulose) (HPC)
[3] = dose: 100.0 mg/kg/injection, schedule: Q04DX003 (ip), vehicle: saline with Tween-80
[4] = dose: 200.0 mg/kg/injection, schedule: Q04DX003 (ip), vehicle: saline with Tween-80
[5] = dose: 400.0 mg/kg/injection, schedule: Q04DX003 (ip), vehicle: saline with Tween-80
[6] = dose: 50.0 mg/kg/injection, schedule: Q01DX005 (ip), vehicle: saline with Tween-80
[7] = dose: 100.0 mg/kg/injection, schedule: Q01DX005 (ip), vehicle: saline with Tween-80
[8] = dose: 200.0 mg/kg/injection, schedule: Q01DX005 (ip), vehicle: saline with Tween-80
[9] = dose: 50.0 mg/kg/injection, schedule: Q01DX005 (ip), vehicle: saline
[10] = dose: 100.0 mg/kg/injection, schedule: Q01DX005 (ip), vehicle: saline
[11] = dose: 200.0 mg/kg/injection, schedule: Q01DX005 (ip), vehicle: saline
[12] = dose: 50.0 mg/kg/injection, schedule: Q01DX009 (ip), vehicle: Klucel (hydroxypropylcellulose) (HPC)
[13] = dose: 100.0 mg/kg/injection, schedule: Q01DX009 (ip), vehicle: Klucel (hydroxypropylcellulose) (HPC)
[14] = dose: 200.0 mg/kg/injection, schedule: Q01DX009 (ip), vehicle: Klucel (hydroxypropylcellulose) (HPC)
[15] = dose: 60.0 mg/kg/injection, schedule: Q01DX005 (ip), vehicle: Klucel (hydroxypropylcellulose) (HPC)
[16] = dose: 120.0 mg/kg/injection, schedule: Q01DX005 (ip), vehicle: Klucel (hydroxypropylcellulose) (HPC)
[17] = dose: 100.0 mg/kg/injection, schedule: Q01DX005 (ip), vehicle: Klucel (hydroxypropylcellulose) (HPC)
[18] = dose: 200.0 mg/kg/injection, schedule: Q01DX005 (ip), vehicle: Klucel (hydroxypropylcellulose) (HPC)

Measured: T/C

O=C1/C(=N\O)Cc2cc(Cl)ccc21
inactive: dose: 12.0 mg/kg/injection, schedule: Q01DX005 (ip), vehicle: Klucel (hydroxypropylcellulose) (HPC) 101 % of control | [1] 111 % of control | [2] 101 % of control and 97 % of control

CCN(Cc1cccc(S(=O)(=O)O)c1)c1ccc(C(=C2C=CC(=[N+](CC)Cc3cccc(S(=O)(=O)O)c3)C=C2)c2ccc(O)cc2S(=O)(=O)O)cc1
inactive: dose: 60.0 mg/kg/injection, schedule: Q01DX005 (ip), vehicle: saline with Tween-80 107 % of control | dose: 120.0 mg/kg/injection, schedule: Q01DX005 (ip), vehicle: saline with Tween-80 98 % of control | dose: 240.0 mg/kg/injection, schedule: Q01DX005 (ip), vehicle: saline with Tween-80 107 % of control

O=S(CF)c1ccc(Cl)cc1 (stereo unspecified)
inactive: [3] 93 % of control | [4] 102 % of control | [5] 107 % of control

COc1ccc(C(=O)C(C)Sc2ccccc2)cc1OC (stereo unspecified)
inactive: dose: 10.0 mg/kg/injection, schedule: Q01DX005 (ip), vehicle: Klucel (hydroxypropylcellulose) (HPC) 108 % of control | dose: 20.0 mg/kg/injection, schedule: Q01DX005 (ip), vehicle: Klucel (hydroxypropylcellulose) (HPC) 105 % of control | dose: 40.0 mg/kg/injection, schedule: Q01DX005 (ip), vehicle: Klucel (hydroxypropylcellulose) (HPC) 101 % of control

CCOC(=O)CC1(O)CS/C(=C(\C#N)C(=O)OCC)N1c1ccccc1 (stereo unspecified)
inactive: [6] 96 % of control | [7] 100 % of control | [8] 96 % of control

CSc1ccc(NC(=O)Nc2nccs2)cc1
inactive: [3] 95 % of control | [4] 100 % of control | [5] 90 % of control

COc1cccc2c1C(=O)c1c(O)c3c(c(O)c1C2=O)C[C@@](O)(C(C)=O)CC3OC1CC(NC(=O)CCCN)C(O)C(C)O1 (stereo partly specified)
inactive: dose: 6.25 mg/kg/injection, schedule: Q04DX003 (ip), vehicle: saline 98 % of control | dose: 12.5 mg/kg/injection, schedule: Q04DX003 (ip), vehicle: saline 97 % of control | dose: 25.0 mg/kg/injection, schedule: Q04DX003 (ip), vehicle: saline 100 % of control | dose: 50.0 mg/kg/injection, schedule: Q04DX003 (ip), vehicle: saline 104 % of control

ClCCn1cnc2c(SCc3ccccc3Cl)ncnc21
inactive: dose: 25.0 mg/kg/injection, schedule: Q01DX009 (ip), vehicle: saline with Tween-80 100 % of control | dose: 50.0 mg/kg/injection, schedule: Q01DX009 (ip), vehicle: saline with Tween-80 90 % of control | dose: 100.0 mg/kg/injection, schedule: Q01DX009 (ip), vehicle: saline with Tween-80 90 % of control

COc1ccc(CSC(=S)Nc2ccc(SC)c(Cl)c2)cc1
inactive: dose: 50.0 mg/kg/injection, schedule: Q01DX009 (ip), vehicle: suspension in saline 100 % of control | dose: 100.0 mg/kg/injection, schedule: Q01DX009 (ip), vehicle: suspension in saline 108 % of control | dose: 200.0 mg/kg/injection, schedule: Q01DX009 (ip), vehicle: suspension in saline 98 % of control

O=C1CC2NC(=O)C(CCCCN1)NC2=O (stereo unspecified)
inactive: dose: 1.5 mg/kg/injection, schedule: Q01DX009 (ip), vehicle: Klucel (hydroxypropylcellulose) (HPC) 100 % of control | dose: 3.0 mg/kg/injection, schedule: Q01DX009 (ip), vehicle: Klucel (hydroxypropylcellulose) (HPC) 99 % of control | dose: 6.0 mg/kg/injection, schedule: Q01DX009 (ip), vehicle: Klucel (hydroxypropylcellulose) (HPC) 97 % of control | dose: 12.0 mg/kg/injection, schedule: Q01DX009 (ip), vehicle: Klucel (hydroxypropylcellulose) (HPC) 109 % of control

c1ccc([Se][Se]c2ccccn2)nc1
inactive: dose: 6.25 mg/kg/injection, schedule: Q01DX005 (ip), vehicle: Klucel (hydroxypropylcellulose) (HPC) 101 % of control | dose: 12.5 mg/kg/injection, schedule: Q01DX005 (ip), vehicle: Klucel (hydroxypropylcellulose) (HPC) 103 % of control | [1] 101 % of control

CCOC(=O)/N=[N+](\[O-])c1cccc(Cl)c1
inactive: dose: 100.0 mg/kg/injection, schedule: Q01DX001 (ip), vehicle: saline with Tween-80 110 % of control | dose: 200.0 mg/kg/injection, schedule: Q01DX001 (ip), vehicle: saline with Tween-80 102 % of control

CCOC(=O)C(CCC[n+]1cc2ccccc2c2ccccc21)C(=O)OCC
inactive: [9] 106 % of control | [10] 101 % of control | [11] 101 % of control

CCC(C)C(N)C(=O)O (stereo unspecified)
inactive: [12] 109 % of control | [13] 94 % of control | [14] 105 % of control

Nc1cccc(S(=O)(=O)Nc2c(N)[nH]c(=S)[nH]c2=O)c1
inactive: dose: 30.0 mg/kg/injection, schedule: Q01DX005 (ip), vehicle: Klucel (hydroxypropylcellulose) (HPC) 101 % of control and 94 % of control | [15] 99 % of control and 100 % of control and 97 % of control | [16] 96 % of control and 97 % of control

O=C1OC(C(O)CO)C(O)C1O (stereo unspecified)
inactive: [2] 99 % of control | [9] 94 % of control and 109 % of control and 102 % of control | [17] 97 % of control | [10] 96 % of control and 105 % of control and 98 % of control | [18] 101 % of control | [11] 96 % of control and 105 % of control

CCn1c(=O)[nH]c(=O)c2[nH]c(Cl)nc21
inactive: dose: 16.0 mg/kg/injection, schedule: Q01DX009 (ip), vehicle: Klucel (hydroxypropylcellulose) (HPC) 103 % of control | dose: 25.0 mg/kg/injection, schedule: Q01DX009 (ip), vehicle: Klucel (hydroxypropylcellulose) (HPC) 105 % of control | dose: 32.0 mg/kg/injection, schedule: Q01DX009 (ip), vehicle: Klucel (hydroxypropylcellulose) (HPC) 107 % of control | [12] 91 % of control | dose: 64.0 mg/kg/injection, schedule: Q01DX009 (ip), vehicle: Klucel (hydroxypropylcellulose) (HPC) 102 % of control | [13] 93 % of control

CC1(n2[nH]c(=O)n(-c3ccccc3)c2=O)Cn2c(=O)n(-c3ccccc3)c(=O)n2-c2ccccc21 (stereo unspecified)
inactive: [2] 101 % of control | [17] 96 % of control | [18] 108 % of control

CCCCCCCCCCCC[C@@H](O)[C@H]1CC[C@H]([C@H](O)CCCC[C@H](O)CCCCC[C@@H](O)CC2=C[C@H](C)OC2=O)O1
inactive: dose: 0.75 mg/kg/injection, schedule: Q01DX009 (ip), vehicle: other 113 % of control | dose: 1.5 mg/kg/injection, schedule: Q01DX009 (ip), vehicle: other 105 % of control

COc1ccc2cc1Oc1cc3c(cc1OC)CC[N+](C)(C)C3Cc1ccc(cc1)Oc1c(OC)c(OC)cc3c1C(C2)[N+](C)(C)CC3 (stereo unspecified)
inactive: dose: 0.03 mg/kg/injection, schedule: Q01DX009 (ip), vehicle: saline 102 % of control and 106 % of control | dose: 0.07 mg/kg/injection, schedule: Q01DX009 (ip), vehicle: saline 100 % of control and 113 % of control | dose: 0.15 mg/kg/injection, schedule: Q01DX009 (ip), vehicle: saline 105 % of control and 106 % of control and 121 % of control | dose: 0.31 mg/kg/injection, schedule: Q01DX009 (ip), vehicle: saline 105 % of control and 112 % of control and 96 % of control | dose: 0.62 mg/kg/injection, schedule: Q01DX009 (ip), vehicle: saline 118 % of control

COc1ccc(C(NC(N)=O)c2cc3c(cc2OC(C)=O)OCO3)cc1 (stereo unspecified)
inactive: [15] 98 % of control | [16] 92 % of control | dose: 240.0 mg/kg/injection, schedule: Q01DX005 (ip), vehicle: Klucel (hydroxypropylcellulose) (HPC) 93 % of control

Brc1ccc(-n2c(-c3ccccc3)cs/c2=N\Nc2nnc(-c3ccccc3)c(-c3ccccc3)n2)cc1
inactive: [6] 101 % of control | [7] 87 % of control | [8] 92 % of control

COC(=O)C(C(C)=O)C(=O)c1cc([N+](=O)[O-])cc([N+](=O)[O-])c1 (stereo unspecified)
inactive: dose: 100.0 mg/kg/injection, schedule: Q04DX002 (ip), vehicle: Klucel (hydroxypropylcellulose) (HPC) 98 % of control | dose: 200.0 mg/kg/injection, schedule: Q04DX002 (ip), vehicle: Klucel (hydroxypropylcellulose) (HPC) 100 % of control | dose: 400.0 mg/kg/injection, schedule: Q04DX002 (ip), vehicle: Klucel (hydroxypropylcellulose) (HPC) 97 % of control

NC(=O)c1[nH]c(/N=N/c2nc[nH]c2C(N)=O)nc1N
inactive: [12] 99 % of control | [13] 99 % of control | [14] 93 % of control

O=P1(c2ccccc2)Cc2ccccc2N1Cc1ccccc1 (stereo unspecified)
inactive: [6] 100 % of control | [7] 103 % of control | [8] 104 % of control

COc1ccccc1N=c1scc(C)n1C
inactive: [12] 111 % of control | [13] 109 % of control | [14] 118 % of control

— PubChem BioAssay AID330 (DTP/NCI, 2004)
